Experimental data published in patent US20250304567A1, “PYRROLIDIONE DERIVATIVES AS INHIBITORS OF NF KAPPA B INDUCING KINASE” (priority 2022, published 2025).

Assays:
[1] = test system: p-IKKa levels in L363 (NIK translocated multiple myeloma) cells; experiment: Effect of compounds on p-IKKa levels in L363 (NIK translocated multiple myeloma) cells (AlphaLISA SureFire Ultra p-IKKa Ser176/180); assay type: cell-based, human; settings: Homo sapiens, L-363, p-IKKa levels in L363 cells; average if tested more than once; read-out: Assay 2 IC50
Method in brief: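 Phospho-IKKa (Ser176/180) in lysates quantified by AlphaLISA after 6 h compound exposure, 11-point threefold dilutions, 0.3% DMSO. L363 cells were pre-stimulated overnight and assayed with 250 ng/ml BAFF and 10 μM MG132; % inhibition fitted sigmoidally for IC50, duplicate curves.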

[2] = biological target: Recombinant Human NF-kappaB-Inducing Kinase (NIK/MAP3K14) (Homo sapiens, UniProt Q99558); experiment: Inhibition of auto-phosphorylation of recombinant human NIK/MAP3K14 activity (AlphaScreen); assay type: biochemical; settings: 5 μM ATP, 1 nM NIK, average if tested more than once
Sequence of Recombinant Human NF-kappaB-Inducing Kinase (NIK/MAP3K14) (Q99558 whole entry): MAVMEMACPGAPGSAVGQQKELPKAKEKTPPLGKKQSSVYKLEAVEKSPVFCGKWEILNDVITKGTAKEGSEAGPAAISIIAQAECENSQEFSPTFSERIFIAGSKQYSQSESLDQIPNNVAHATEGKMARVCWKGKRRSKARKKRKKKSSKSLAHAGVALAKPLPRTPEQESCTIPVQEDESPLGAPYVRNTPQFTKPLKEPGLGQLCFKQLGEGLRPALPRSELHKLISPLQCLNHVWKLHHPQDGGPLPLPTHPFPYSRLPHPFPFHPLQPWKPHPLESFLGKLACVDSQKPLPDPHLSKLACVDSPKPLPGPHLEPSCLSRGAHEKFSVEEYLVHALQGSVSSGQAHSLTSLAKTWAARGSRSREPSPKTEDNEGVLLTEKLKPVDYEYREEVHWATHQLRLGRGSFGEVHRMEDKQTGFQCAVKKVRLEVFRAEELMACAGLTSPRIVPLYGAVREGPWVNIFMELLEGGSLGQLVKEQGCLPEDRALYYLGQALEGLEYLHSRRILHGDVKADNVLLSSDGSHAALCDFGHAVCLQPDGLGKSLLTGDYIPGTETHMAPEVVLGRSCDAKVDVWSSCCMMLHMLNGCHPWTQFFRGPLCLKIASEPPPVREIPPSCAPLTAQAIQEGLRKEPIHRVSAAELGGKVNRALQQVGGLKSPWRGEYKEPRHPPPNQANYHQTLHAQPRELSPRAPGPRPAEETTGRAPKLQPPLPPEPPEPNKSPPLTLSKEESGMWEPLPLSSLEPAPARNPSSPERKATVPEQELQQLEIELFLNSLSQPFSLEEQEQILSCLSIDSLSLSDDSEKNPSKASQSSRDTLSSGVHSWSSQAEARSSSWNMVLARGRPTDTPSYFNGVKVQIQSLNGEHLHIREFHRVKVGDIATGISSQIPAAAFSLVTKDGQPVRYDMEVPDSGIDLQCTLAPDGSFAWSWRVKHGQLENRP
Method in brief: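 AlphaScreen detection of phospho-Ser176/180 after 1 nM GST-NIK auto-phosphorylates for 2 h at 25 °C with 5 μM ATP (50 mM Tris pH 7.5, 0.7% DMSO). IC50s come from sigmoidal curves of % inhibition against log dose, using enzyme-free, ATP-free low controls and full-activity high controls.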

SMILES	IC50 [1] [µM]	IC50 [2] [µM]
CN1CC[C@@](O)(c2cccc(-c3nc(-c4ccnc(Nc5cccc(C(F)(F)F)n5)n4)cs3)c2)C1=O [Example 169, (R)-3-Hydroxy-1-methyl-3-(3-(4-(2-((6-(trifluoromethyl)pyridin-2-yl)amino)pyrimidin-4-yl)thiazol-2-yl)phenyl)pyrrolidin-2-one]	> 0.501	< 0.1
CNc1nccc(-c2csc(-c3cccc([C@]4(O)CCN(C)C4=O)c3)n2)n1 [Example 170]	> 0.501	0.1 to 0.5
CN1CC[C@@](O)(c2cccc(-c3nc(-c4ccnc(N[C@@H]5CNC(=O)C5)n4)cs3)c2)C1=O [Example 171]	> 0.501	< 0.1
CC(=O)N1CC(Nc2nccc(-c3csc(-c4cccc([C@]5(O)CCN(C)C5=O)c4)n3)n2)C1 [Example 172]	> 0.501	0.1 to 0.5
CN1CC[C@@](O)(c2cccc(-c3nc(-c4ccnc(NCCS(C)(=O)=O)n4)cs3)c2)C1=O [Example 173]	> 0.501	0.1 to 0.5
CN1CC[C@@](O)(c2cccc(-c3nc(-c4ccnc(NCCCO)n4)cs3)c2)C1=O [Example 174]	> 0.501	< 0.1
Cc1nnc(Nc2nccc(-c3csc(-c4cccc([C@]5(O)CCN(C)C5=O)c4)n3)n2)o1 [Example 175]	> 0.501	0.1 to 0.5
CN1CC[C@@](O)(c2cccc(-c3nc(-c4ccnc(Nc5ccnn5C)n4)cs3)c2)C1=O [Example 176]	< 0.1	< 0.1
CN1CC[C@@](O)(c2cccc(-c3nc(-c4ccnc(Nc5cnn(C)c5)n4)cs3)c2)C1=O [Example 177]	< 0.1	< 0.1
Cc1c(Nc2nccc(-c3csc(-c4cccc([C@]5(O)CCN(C)C5=O)c4)n3)n2)ncn1C [Example 178]	> 0.501	> 0.501
CN1CC[C@@](O)(c2cccc(-c3nc(-c4ccnc(Nc5cn6ccccc6n5)n4)cs3)c2)C1=O [Example 179]	> 0.501	> 0.501
CN1CC[C@@](O)(c2cccc(-c3nc(-c4ccnc(N[C@H]5C[C@@H](O)C5)n4)cs3)c2)C1=O [Example 180]	> 0.501	0.1 to 0.5
CN1CC[C@@](O)(c2cccc(-c3nc(-c4ccnc(NC5CCOCC5)n4)cs3)c2)C1=O [Example 181]	> 0.501	0.1 to 0.5
CN1CC[C@@](O)(c2cccc(-c3nc(-c4ccnc(NCc5ccccn5)n4)cs3)c2)C1=O [Example 182]	> 0.501	0.1 to 0.5
CN1CC[C@@](O)(c2cccc(-c3nc(-c4ccnc(NCc5cnn(C)c5)n4)cs3)c2)C1=O [Example 183]	> 0.501	< 0.1
CN1CC[C@@](O)(c2cccc(-c3nc(-c4ccnc(NCc5ccn(C)n5)n4)cs3)c2)C1=O [Example 184]	> 0.501	< 0.1
C[C@@H](Nc1nccc(-c2csc(-c3cccc([C@]4(O)CCN(C)C4=O)c3)n2)n1)c1ccccn1 [Example 185]	> 0.501	< 0.1
C[C@H](Nc1nccc(-c2csc(-c3cccc([C@]4(O)CCN(C)C4=O)c3)n2)n1)c1ccccn1 [Example 186]	> 0.501	0.1 to 0.5
CN1CC[C@@](O)(c2cccc(-c3nc(-c4ccnc(NCCc5cnn(C)c5)n4)cs3)c2)C1=O [Example 187]	> 0.501	< 0.1
CN1CC[C@@](O)(c2cccc(-c3nc(-c4ccnc(NC5CC6(CC(O)C6)C5)n4)cs3)c2)C1=O (stereo partly drawn) [Example 188]	> 0.501	0.1 to 0.5
CN1CC[C@@](O)(c2cccc(-c3nc(-c4ccnc(NCCc5ccccn5)n4)cs3)c2)C1=O [Example 189]	> 0.501	0.1 to 0.5
CN1CC[C@@](O)(c2cccc(-c3nc(-c4ccnc(NCC5CCO5)n4)cs3)c2)C1=O (stereo partly drawn) [Example 190]	> 0.501	0.1 to 0.5
CN1CC[C@@](O)(c2cccc(-c3nc(-c4ccnc(NC5(CO)CCC5)n4)cs3)c2)C1=O [Example 191]	> 0.501	< 0.1
CN1CC[C@@](O)(c2cccc(-c3nc(-c4ccnc(NC[C@H]5CCOC5)n4)cs3)c2)C1=O [Example 192]	> 0.501	0.1 to 0.5
